pIC50: −log10 of the molar value.
Molecular target: BTK (Homo sapiens (Human), UniProt Q06187)
Test: Btk kinase assay (HTRF)
Type: biochemical
Settings: [ATP]=80 μM, BTK=3.4 nM; read-out: BTK Inhibition
How it was run: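 HTRF kinase read-out (665/615 nm ratio, excitation 330 nm) after EDTA quench and 1 h detection incubation. Reaction: 3.4 nM BTK, ATP 80 μM, peptide substrate 1 μM, compound, HEPES pH 7.0 buffer, 1 h; IC50 derived using uninhibited and enzyme-free controls.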

BTK, sequence (Q06187 whole entry, species assumed): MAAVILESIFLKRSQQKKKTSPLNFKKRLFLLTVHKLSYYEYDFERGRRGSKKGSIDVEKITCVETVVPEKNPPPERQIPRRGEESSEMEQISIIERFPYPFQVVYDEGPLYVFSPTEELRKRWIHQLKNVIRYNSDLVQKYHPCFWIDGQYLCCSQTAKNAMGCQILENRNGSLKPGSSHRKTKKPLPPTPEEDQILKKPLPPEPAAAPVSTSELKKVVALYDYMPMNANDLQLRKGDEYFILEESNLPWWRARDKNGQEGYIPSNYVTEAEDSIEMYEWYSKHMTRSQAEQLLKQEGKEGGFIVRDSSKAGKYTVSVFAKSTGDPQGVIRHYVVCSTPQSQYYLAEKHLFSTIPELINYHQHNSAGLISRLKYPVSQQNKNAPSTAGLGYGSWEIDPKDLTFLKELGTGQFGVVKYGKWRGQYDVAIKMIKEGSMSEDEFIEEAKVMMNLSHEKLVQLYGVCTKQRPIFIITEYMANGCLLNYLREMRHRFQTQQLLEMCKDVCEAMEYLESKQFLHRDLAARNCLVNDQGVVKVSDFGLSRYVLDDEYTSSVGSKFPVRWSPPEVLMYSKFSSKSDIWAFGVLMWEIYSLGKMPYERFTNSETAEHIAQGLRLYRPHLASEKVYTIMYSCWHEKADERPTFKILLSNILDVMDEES

Row | SMILES | pIC50
1 | C=CC(=O)Nc1cccc(-n2c(=O)n(-c3ccc(Oc4ccc(Cl)c(Cl)c4)cc3)c3cnccc32)c1 [Example 159, N-(3-(3-(4-(3,4-dichlorophenoxy)phenyl)-2-oxo-2,3-dihydro-1H-imidazo[4,5-c]pyridin-1-yl)phenyl)acrylamide] | 7.00 to 8.00
2 | C=CC(=O)Nc1cccc(-n2c(=O)n(-c3ccc(Oc4ccc(Cl)c(F)c4)cc3)c3cnccc32)c1 [Example 160, N-(3-(3-(4-(4-chloro-3-fluorophenoxy)phenyl)-2-oxo-2,3-dihydro-1H-imidazo[4,5-c]pyridin-1-yl)phenyl)acrylamide] | 6.00 to 7.00
3 | C=CC(=O)Nc1cccc(-n2c(=O)n(-c3ccc(Oc4ccc(OC)c(F)c4)cc3)c3cnccc32)c1 [Example 161, N-(3-(3-(4-(3-fluoro-4-methoxyphenoxy)phenyl)-2-oxo-2,3-dihydro-1H-imidazo[4,5-c]pyridin-1-yl)phenyl)acrylamide] | 6.00 to 7.00
4 | C=CC(=O)Nc1cccc(-n2c(=O)n(-c3ccc(Oc4ccc(C#N)cc4)cc3)c3cnccc32)c1 [Example 162, N-(3-(3-(4-(4-cyanophenoxy)phenyl)-2-oxo-2,3-dihydro-1H-imidazo[4,5-c]pyridin-1-yl)phenyl)acrylamide] | 6.00 to 7.00
5 | C=CC(=O)Nc1cccc(-n2c(=O)n(-c3ccc(Oc4ccc(OC)c(C)c4)cc3)c3cnccc32)c1 [Example 163, N-(3-(3-(4-(4-methoxy-3-methylphenoxy)phenyl)-2-oxo-2,3-dihydro-1H-imidazo[4,5-c]pyridin-1-yl)phenyl)acrylamide] | 6.00 to 7.00
6 | CC#CC(=O)N1CCC[C@@H]1Cn1c(=O)n(-c2ccc(Oc3cccc(OC)c3F)cc2)c2cncc(C)c21 [Example 169, (R)-1-((1-(but-2-ynoyl)pyrrolidin-2-yl)methyl)-3-(4-(2-fluoro-3-methoxyphenoxy)phenyl)-7-methyl-1H-imidazo[4,5-c]pyridin-2(3H)-one] | 6.00 to 7.00
7 | C=CC(=O)N1CCC[C@@H]1Cn1c(=O)n(-c2ccc(Oc3cccc(OC)c3F)cc2)c2cncc(C)c21 [Example 170, (R)-1-((1-acryloylpyrrolidin-2-yl)methyl)-3-(4-(2-fluoro-3-methoxyphenoxy)phenyl)-7-methyl-1H-imidazo[4,5-c]pyridin-2(3H)-one] | 6.00 to 7.00
8 | CC#CC(=O)N1CC[C@@H](n2c(=O)n(-c3ccc(Oc4cccc(OC)c4F)cc3)c3cncc(C)c32)C1 [Example 173, (R)-1-(1-(but-2-ynoyl)pyrrolidin-3-yl)-3-(4-(2-fluoro-3-methoxyphenoxy)phenyl)-7-methyl-1H-imidazo[4,5-c] pyridin-2(3H)-one] | 7.00 to 8.00
9 | CN(C(=O)/C=C/CN(C)C1CC1)c1cccc(-n2c(=O)n(-c3ccc(Oc4ccccc4)cc3)c3c(N)ncnc32)c1 [Example 174, (E)-N-(3-(6-amino-8-oxo-7-(4-phenoxyphenyl)-7H-purin-9(8H)-yl)phenyl)-4-(cyclopropyl(methyl)amino)-N-methylbut-2-enamide] | 7.00 to 8.00
10 | C=CC(=O)N1CC[C@H](n2c(=O)n(-c3ccc(Oc4ccccc4)cc3)c3/c(=N/O)[nH]cnc32)C1 [Example 177, (S,Z)-9-(1-acryloylpyrrolidin-3-yl)-6-(hydroxyimino)-7-(4-phenoxyphenyl)-7,9-dihydro-1H-purin-8(6H)-one] | 6.00 to 7.00
11 | C=CC(=O)N1CCCC1Cn1c(=O)n(-c2ccc(Oc3ccccc3)cc2)c2cnccc21 (stereo not shown) [Example 178, 1-(1-Acryloyl-pyrrolidin-2-ylmethyl)-3-(4-phenoxy-phenyl)-1,3-dihydro-imidazo [4,5-c]pyridin-2-one] | 7.00 to 8.00
12 | C=CC(=O)N1CC[C@H](n2c(=O)n(-c3ccc(Oc4ccccc4)cc3)c3c(/C(N)=N/O)nccc32)C1 [Example 179, (S,Z)-1-(1-acryloylpyrrolidin-3-yl)-N′-hydroxy-2-oxo-3-(4-phenoxyphenyl)-2,3-dihydro-1H-imidazo[4,5-c] pyridine-4-carboximidamide] | ≤ 5.00
13 | CC(C)(C)/C=C(/C#N)C(=O)N1CCCC1Cn1c(=O)n(-c2ccc(Oc3ccccc3)cc2)c2cnccc21 (stereo not shown) [Example 180, 4,4-Dimethyl-2-{2-[2-oxo-3-(4-phenoxy-phenyl)-2,3-dihydro-imidazo[4,5-c]pyridin-1-ylmethyl]-pyrrolidine-1-carbonyl}-pent-2-enenitrile] | 6.00 to 7.00
14 | C=CC(=O)N1CC[C@@H](n2c(=O)n(-c3ccc(Oc4ccccc4)cc3)c3cncc(C#N)c32)C1 [Example 181, (R)-1-(1-acryloylpyrrolidin-3-yl)-oxo-3-(4-phenoxyphenyl)-2,3-dihydro-1H-imidazo[4,5-c] pyridine-7-carbonitrile] | 7.00 to 8.00
15 | CN(C/C=C/C(=O)N1CC[C@@H](n2c(=O)n(-c3ccc(Oc4ccccc4)cc3)c3cnccc32)C1)C1CC1 [Example 187, (R,E)-1-(1-(4-(cyclopropyl(methyl)amino)but-2-enoyl)pyrrolidin-3-yl)-3-(4-phenoxyphenyl)-1H-imidazo[4,5-c]pyridin-2(3H)-one] | 6.00 to 7.00
16 | C=CC(=O)N1CC[C@@H](n2c(=O)n(-c3ccc(Oc4ccccc4)cc3)c3c([N+](=O)[O-])cccc32)C1 [Example 189, (R)-1-(1-acryloylpyrrolidin-3-yl)-4-nitro-3-(4-phenoxyphenyl)-1H-benzo[d]imidazol-2(3H)-one] | ≤ 5.00
17 | C=CC(=O)N1CC[C@@H](n2c(=O)n(-c3ccc(Oc4ccccc4)cc3)c3c(N)cccc32)C1 [Example 190, (R)-1-(1-acryloylpyrrolidin-3-yl)-4-amino-3-(4-phenoxyphenyl)-1H-benzo[d]imidazol-2(3H)-one] | 6.00 to 7.00

Other lines, results leading:

Row | pIC50 | SMILES
18 | 5.00 to 6.00 | C=CC(=O)N1CCC(n2c(=O)n(-c3ccc(Oc4ccncc4)cc3)c3cnccc32)C1 (stereo not shown) [Example 164, 1-(1-acryloylpyrrolidin-3-yl)-3-(4-(pyridin-4-yloxy)phenyl)-1H-imidazo[4,5-c]pyridin-2(3H)-one]
19 | 6.00 to 7.00 | C=CC(=O)N1CCC(n2c(=O)n(-c3ccc(Oc4cccnn4)cc3)c3cnccc32)C1 (stereo not shown) [Example 165, 1-(1-acryloylpyrrolidin-3-yl)-3-(4-(pyridazin-3-yloxy)phenyl)-1H-imidazo[4,5-c]pyridin-2(3H)-one]
20 | ≥ 8.00 | C=CC(=O)N1CCC[C@@H](n2c(=O)n(-c3ccc(Oc4cccc(OC)c4F)cc3)c3cncc(OC)c32)C1 [Example 166, (R)-1-(1-acryloylpiperidin-3-yl)-3-(4-(2-fluoro-3-methoxyphenoxy)phenyl)-7-methoxy-1H-imidazo[4,5-c]pyridin-2(3H)-one]
21 | ≥ 8.00 | C=CC(=O)N1CCC[C@@H](n2c(=O)n(-c3ccc(Oc4cccc(OC)c4F)cc3)c3cncc(OCC)c32)C1 [Example 167, (R)-1-(1-acryloylpiperidin-3-yl)-7-ethoxy-3-(4-(2-fluoro-3-methoxyphenoxy)phenyl)-1H-imidazo [4,5-c]pyridin-2(3H)-one]
22 | ≥ 8.00 | C=CC(=O)N1CCC[C@@H](n2c(=O)n(-c3ccc(Oc4cccc(OC)c4F)cc3)c3cncc(C)c32)C1 [Example 168, (R)-1-(1-acryloylpiperidin-3-yl)-3-(4-(2-fluoro-3-methoxyphenoxy)phenyl)-7-methyl-1H-imidazo[4,5-c]pyridin-2(3H)-one]
23 | 6.00 to 7.00 | CC#CC(=O)N1CCC[C@@H](n2c(=O)n(-c3ccc(Oc4cccc(OC)c4F)cc3)c3cncc(C)c32)C1 [Example 171, (R)-1-(1-(but-2-ynoyl)piperidin-3-yl)-3-(4-(2-fluoro-3-methoxyphenoxy)phenyl)-7-methyl-1H-imidazo[4,5-c]pyridin-2(3H)-one]
24 | ≥ 8.00 | C=CC(=O)N1CC[C@@H](n2c(=O)n(-c3ccc(Oc4cccc(OC)c4F)cc3)c3cncc(C)c32)C1 [Example 172, (R)-1-(1-acryloylpyrrolidin-3-yl)-3-(4-(2-fluoro-3-methoxyphenoxy)phenyl)-7-methyl-1H-imidazo[4,5-c]pyridin-2(3H)-one]
25 | 6.00 to 7.00 | CC#CC(=O)N1CCC[C@@H](n2c(=O)n(-c3ccc(Oc4cccc(OC)c4F)cc3)c3cnccc32)C1 [Example 175, (R)-1-(1-(but-2-ynoyl)piperidin-3-yl)-3-(4-(2-fluoro-3-methoxyphenoxy)phenyl)-1H-imidazo[4,5-c]pyridin-2(3H)-one]
26 | ≥ 8.00 | C=CC(=O)N1CC[C@@H](n2c(=O)n(-c3ccc(Oc4ccccc4)cc3)c3cncc(C)c32)C1 [Example 176, (R)-1-(1-acryloylpyrrolidin-3-yl)-7-methyl-3-(4-phenoxyphenyl)-1H-imidazo[4,5-c]pyridin-2(3H)-one]
27 | ≤ 5.00 | C=CC(=O)N1CC[C@@H](n2c(=O)n(-c3ccc(Oc4ccccc4)cc3)c3c(OC)nccc32)C1 [Example 182, (R)-1-(1-acryloylpyrrolidin-3-yl)-4-methoxy-3-(4-phenoxyphenyl)-1H-imidazo[4,5-c]pyridin-2(3H)-one]
28 | ≤ 5.00 | C=CC(=O)N1CC[C@@H](n2c(=O)n(-c3ccc(Oc4ccccc4)cc3)c3c(O)nccc32)C1 [Example 183, (R)-1-(1-acryloylpyrrolidin-3-yl)-4-hydroxy-3-(4-phenoxyphenyl)-1H-imidazo[4,5-c]pyridin-2(3H)-one]
29 | ≥ 8.00 | C=CC(=O)N1CCC[C@@H](n2c(=O)n(-c3ccc(Oc4cccc(OC)c4Cl)cc3)c3cnccc32)C1 [Example 185, (R)-1-(1-acryloylpiperidin-3-yl)-3-(4-(2-chloro-3-methoxyphenoxy)phenyl)-1H-imidazo[4,5-c]pyridin-2(3H)-one]
30 | ≥ 8.00 | C=CC(=O)N1CCC[C@@H](n2c(=O)n(-c3ccc(Oc4cccc(OC)c4F)cc3)c3cnccc32)C1 [Example 186, (R)-1-(1-acryloylpiperidin-3-yl)-3-(4-(2-fluoro-3-methoxyphenoxy)phenyl)-1H-imidazo[4,5-c]pyridin-2(3H)-one]
31 | 6.00 to 7.00 | CN(C/C=C/C(=O)N1CCC[C@@H](n2c(=O)n(-c3ccc(Oc4ccccc4)cc3)c3cnccc32)C1)C1CC1 [Example 188, (R,E)-1-(1-(4-(cyclopropyl(methyl)amino)but-2-enoyl)piperidin-3-yl)-3-(4-phenoxyphenyl)-1H-imidazo[4,5-c]pyridin-2(3H)-one]

Source: US10358446B2, “Bruton's tyrosine kinase inhibitors” (Zibo Biopolar Changsheng Pharmaceutical Co. Ltd., priority 2015, dated 2019)
